# Experimental data taken from patent publication US20250312349A1, “COMPOSITION AND METHODS OF TREATING INTRACELLULAR PATHOGEN INFECTION” (UNIVERSITY HOSPITALS CLEVELAND MEDICAL CENTER, priority 2024, published 2025).
# Experiments:
# Lek and Fyn in T cells = details: cited from earlier work
# T. gondii [1] = assay: In vitro infection of mammalian cells with T. gondii tachyzoites, counted by light microscopy; assay type: cell-based, Toxoplasma gondii; details: CHO cells, 0.3 μM or 1 μM, 2 or 24 hours
# Protocol: Chinese Hamster Ovary (CHO; a gift from Cathleen Carlin, Case Western Reserve University), human retinal pigment epithelial (RPE) cells (ARPE-19; American Type Culture Collection, ATCC, Manassas, VA), and mouse endothelial […]) transduced with Src shRNA or control encoding lentiviral vectors were cultured in complete media. Mouse brain endothelial cells expressing WT or DN EGFR were isolated as described. Endothelial cells were cultured in medium containing Endothelial Cell Growth Supplement (ECGS; Sigma-Aldrich, St Louis, MO). Mammalian cells were infected with tachyzoites of the RH or PTG stains of T. gondii; RH strain was used unless otherwise indicated. Cells were fixed at 2 hours or 24 hours followed by staining using Hema 3 Manual Staining System (Fisherbrand, Hampton, NH). At least 100 to 200 cells per monolayer were counted by examining a minimum of 5 random areas per monolayer. The percentage of infected cells, tachyzoites and vacuoles per 100 cells, and tachyzoites per vacuole were counted using light microscopy. Three independent experiments were performed. Saracatinib, Gefitinib (LC Laboratories, Woburn, MA) and lysosomal inhibitors leupeptin and pepstatin (10 μM; Millipore Sigma, Burlington, MA) were used in specified experiments. Each cell monolayer was generated and infected independently.
# T. gondii [2] = details: mice with ocular and cerebral toxoplasmosis, dependent on Beclin 1; cited from earlier work
structure (smiles),measurement,setting,value
"Cc1nc(Nc2ncc(C(=O)Nc3c(C)cccc3Cl)s2)cc(N2CCN(CCO)CC2)n1.O [Dasatinib, N-(2-chloro-6-methylphenyl)-2-[[6-[4-(2-hydroxyethyl)-1-piperazinyl]-2-methyl-4-pyrimidinyl]amino]-5-thiazole carboxamide monohydrate]",IFN-γ production by T cells,Lek and Fyn in T cells,impaired
same,activity of Lek and Fyn in T cells,Lek and Fyn in T cells,reduced
Cc1ccc(NC(=O)c2ccc(CN3CCN(C)CC3)cc2)cc1Nc1nccc(-c2cccnc2)n1 [Imatinib],"parasite survival (infected cells, tachyzoites per 100 cells)",T. gondii [1],No significant difference
COc1cc2ncnc(Nc3ccc(F)c(Cl)c3)c2cc1OCCCN1CCOCC1 [Gefitinib],parasite load and histopathology in the eye and brain,T. gondii [2],partial reduction
